Laboratory results: patent publication US5352665A, “Method of treating disease caused by the infection of virus” (Mitsui Toatsu Chemicals, Incorporated, priority 1987, dated 1994)
Square brackets hold non-standard residues; d marks the D form. Peptide text beside a SMILES is read from it. pGlu = O=C1CC[C@@H](C(=O)O)N1

Tests used:
[1] = Toxicity test, repeated subcutaneous administration to rats; format: in vivo, rat; conditions: 30 mg/kg subcutaneously for consecutive 21 days
Excerpt: (§1) Thus, the medicament of the present invention is a safe medicament of extremely low toxicity and can be administered for a long period of time.

[2] = Toxicity test, repeated subcutaneous administration to mice; format: in vivo, mouse
Excerpt: as §1

REO virus type II = test: Jerne plaque assay (anti-SRBC hemolysis plaques) in new-born NC mice infected with REO virus; format: in vivo, mouse; conditions: for PFC/10^6 spleen cells (number of hemolysis plaques): measured 4 days later; for therapeutic effect on immune inhibition (in words): administered together with SRBC to infected NC mice, LPS 5 μg/mouse, MDP 20 μg/mouse
Protocol: Two weeks after the infection of 10^5 PFU REO virus, sheep red blood cells (referred to hereinafter simply as SRBC) was intraperitoneally administered and 4 days after the administration, the number of hemolysis plaques was measured by way of Jerne plaque assay as a production amount of antibody-forming cells against SRBC. The number of hemolysis plaques was 15±2 per 10^6 spleen cells in a group not infected with REO virus, while that was 2.8±1.6 in an infected group, thus showing a remarkable immunity inhibitory state. In compliance with this, atrophy of thymus and decrease in the number of thymic cortex lymphocytes were observed.
On the other hand, the effective ingredient of this invention dissolved in physiological saline was administered in an amount of 10 μg/mouse simultaneously with SRBC to mice, and 4 days after the administration, the number of hemolysis plaques was measured whereupon the number was 22±5. […] In a group to which muramyl dipeptide was administered in an amount of 20 μg/mouse together with Freund incomplete adjuvant, the number of hemolysis plaques was 11±2.
Next, recovery of the immune function by immunity-enhancing substance was examined, using new-born mice infected with REO virus type II. Two weeks after the infection of the mice with the virus, sheep red blood cells were administered to the mice, and 4 days after the administration, Jerne plaque assay was carried out to measure the number of hemolysis plaques. The number was 15±2 in a group of the mice not infected and was 2.8±1.6 in a group of the infected mice. […] This recovery of the function of immune inhibition is tabulated as follows:
Mice infected with virus was immunized at the same time with SRBC and an immunostimulant, and 4 days after the immunization, the number of hemolysis plaques was measured by Jerne plaque assay.
After mice being infected with REO virus, 10 μg 1 μg or 0.1 μg of FTS was administered to the mice. After 18 days, inhibition of immunity and recovery of its function were observed by way of Jerne plaque assay.
Virus: REO virus type II, innoculation 1×10^5 PFU/mouse

Row | Compound | abnormal symptom in external behavior observation, biochemical diagnosis of sera and pathological anatomy ([1]; rats) | toxicity ([1]; wister rats of 5 weeks old) | toxicity ([2]; 50 mg/kg and 100 mg/kg subcutaneously for consecutive 14 days, ddy male mice of 5 weeks old) | abnormal symptom by external check ([2]; 100 mg/kg subcutaneously every day for consecutive 14 days, mice) | PFC/10^6 spleen cells (number of hemolysis plaques) (REO virus type II; MDP 20 μg/mouse with Freund incomplete adjuvant and SRBC 2 weeks after 10^5 PFU REO virus) [PFC/10^6 spleen cells] | PFC/10^6 spleen cells (number of hemolysis plaques) (REO virus type II; MDP 20 μg/mouse with Freund incomplete adjuvant and SRBC 2 weeks after 10^5 PFU REO virus, listed as muramyl dipeptide) [PFC/10^6 spleen cells] | therapeutic effect on immune inhibition (in words) (REO virus type II) | PFC/10^6 spleen cells (number of hemolysis plaques) (REO virus type II; LPS 5 μg/mouse with SRBC 2 weeks after 10^5 PFU REO virus) [PFC/10^6 spleen cells] | PFC/10^6 spleen cells (number of hemolysis plaques) (REO virus type II; LPS 5 μg/mouse with SRBC 2 weeks after 10^5 PFU REO virus, listed as lipopolysaccharide (LPS)) [PFC/10^6 spleen cells]
1 | C[C@H](NC(=O)[C@@H]1CCC(=O)N1)C(=O)N[C@@H](CCCCN)C(=O)N[C@@H](CO)C(=O)N[C@@H](CCC(N)=O)C(=O)NCC(=O)NCC(=O)N[C@@H](CO)C(=O)N[C@@H](CC(N)=O)C(=O)O [FTS, pGlu-Ala-Lys-Ser-Gln-Gly-Gly-Ser-Asn] ([pGlu]AKSQGGSN-OH) | no abnormal symptom was found | No toxicity was observed | No toxicity was observed | no abnormal symptom was found |  |  |  |  | 
2 | CC(=O)N[C@H]1C(O)O[C@H](CO)[C@@H](O)[C@@H]1O[C@H](C)C(=O)N[C@@H](C)C(=O)N[C@H](CCC(=O)O)C(N)=O (mixture of isomers) [MDP, muramyl dipeptide] |  |  |  |  | 11 ± 2 | 11±2 | showing a therapeutic effect |  | 
3 | lipopolysaccharide [LPS] |  |  |  |  |  |  | no therapeutic effect | 0.3 ± 0.4 | 0.3±0.4
